Data on one compound can be found in patent US10570155B2, “Imidazooxazole derivative having antitumor effect, and pharmaceutical composition including same” (KOREA INSTITUTE OF SCIENCE AND TECHNOLOGY, priority 2016, dated 2020).

pIC50: −log10 of the molar value.

For one assay, the target named is V600E-B-RAF (Homo sapiens (Human), UniProt P15056, V600E). The assay can be described thus: Protein kinase enzymatic activity (Reaction Biology kinase hotspot, 33P-ATP). Format: biochemical. As to conditions: read-out: Inhibitory effect against kinase activity, V600E-B-RAF (IC50). How it is done: (§1) Reaction biology kinase hotspot service (http://www.reactionbiology.com) was used to measure IC50. In a final reaction volume of 25 μL, kinase (5 mU to 10 mU) was incubated with 25 mM Tris (pH 7.5), 0.02 mM EGTA, 0.66 mg/ml of myelin basic protein, 10 mM magnesium acetate, and [^33P-ATP] (specific activity of about 500 CPM/pmol, concentration as required). The reaction was initiated by addition of Mg-ATP mix. After incubation for 40 min at room temperature, the reaction was stopped by addition of 5 μl of a 3% phosphoric acid solution. 10 μL of the reaction was then spotted onto a P30 filtermat and washed three times for 5 minutes in 75 mM phosphoric acid and once in methanol prior to drying and scintillation counting.
Sequence of V600E-B-RAF (P15056 whole entry V600E): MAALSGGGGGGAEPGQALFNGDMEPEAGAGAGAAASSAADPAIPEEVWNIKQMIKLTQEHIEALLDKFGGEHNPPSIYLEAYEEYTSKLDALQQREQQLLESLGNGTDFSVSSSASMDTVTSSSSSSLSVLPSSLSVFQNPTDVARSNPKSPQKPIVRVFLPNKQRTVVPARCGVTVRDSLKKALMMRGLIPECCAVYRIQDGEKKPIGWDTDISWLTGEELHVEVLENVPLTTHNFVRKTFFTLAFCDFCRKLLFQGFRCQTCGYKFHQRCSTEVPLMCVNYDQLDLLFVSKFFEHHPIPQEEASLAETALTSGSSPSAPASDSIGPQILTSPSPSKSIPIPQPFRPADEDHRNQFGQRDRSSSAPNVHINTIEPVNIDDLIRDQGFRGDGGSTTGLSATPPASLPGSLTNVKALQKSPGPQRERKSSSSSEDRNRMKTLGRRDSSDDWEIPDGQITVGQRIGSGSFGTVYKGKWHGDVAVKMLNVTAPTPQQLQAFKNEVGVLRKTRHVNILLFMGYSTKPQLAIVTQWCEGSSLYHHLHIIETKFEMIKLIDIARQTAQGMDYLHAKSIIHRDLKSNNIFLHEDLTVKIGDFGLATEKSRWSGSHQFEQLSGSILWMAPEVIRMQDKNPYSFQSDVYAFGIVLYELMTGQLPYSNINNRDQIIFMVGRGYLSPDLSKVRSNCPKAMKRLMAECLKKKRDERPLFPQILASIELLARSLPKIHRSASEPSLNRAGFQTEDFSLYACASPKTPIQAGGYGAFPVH

The target in the next assay is C-RAF (Homo sapiens (Human), UniProt P04049, Y340D/Y341D). Described as above. Format: biochemical. As to conditions: read-out: Inhibitory effect against kinase activity, C-RAF (IC50). How it is done: as §1
Sequence of C-RAF (P04049 306-648 Y340D/Y341D limits assumed): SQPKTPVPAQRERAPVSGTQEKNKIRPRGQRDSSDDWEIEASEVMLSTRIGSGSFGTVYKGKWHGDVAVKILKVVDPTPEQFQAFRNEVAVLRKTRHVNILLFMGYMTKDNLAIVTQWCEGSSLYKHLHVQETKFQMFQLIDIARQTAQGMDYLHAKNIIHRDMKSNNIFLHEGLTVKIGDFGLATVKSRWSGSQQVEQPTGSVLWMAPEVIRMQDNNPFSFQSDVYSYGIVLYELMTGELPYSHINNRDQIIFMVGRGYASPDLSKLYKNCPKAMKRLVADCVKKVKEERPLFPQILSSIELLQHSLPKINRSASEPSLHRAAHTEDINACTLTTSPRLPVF
In another assay the target is B-RAF (Homo sapiens (Human), UniProt P15056). The assay is described as above. Format: biochemical. Conditions: read-out: Inhibitory effect against kinase activity, B-RAF (IC50). The protocol: as §1
Sequence of B-RAF (P15056 whole entry): as the sequence (P15056 whole entry V600E) above, with E600V counted along it
A further assay deals with SK-MEL-2. The assay can be described thus: NCI cancer cell line panel screening (SRB), melanoma cell line SK-MEL-2. The assay is classed as cell-based, human. As to conditions: Homo sapiens, read-out: IC50 against melanoma cell line in vitro. How it is done:
According to the standard protocol (http://dtp.nci.nih.gov/dtpstandard/dwindex/index.isp) of the US National Cancer Institute (NCI) (www.dtp.nci.nih.gov), screening of a cancer cell line panel was performed. […] For a general screening experiment, cells were inoculated in 96-well microtiter plates in 100 μl at a plating density ranging from 5000 cells/well to 40,000 cells/well depending on the doubling time of individual cell lines. After cell inoculation, the microtiter plates were incubated at 37° C., 5% CO2, 95% air, and 100% relative humidity for 24 hours prior to addition of test compounds. 24 hours later, two plates of each cell line were fixed in situ with trichloroacetic acid (TCA) to measure the cell population for each cell line at the time of test compound addition (Tz). Test compounds were solubilized in dimethyl sulfoxide at 400-fold the intended final maximum test concentration, and stored frozen prior to use. At the time of compound addition, an aliquot of frozen concentrate was thawed and diluted to twice the intended final maximum test concentration with a complete medium containing 50 μg/ml of gentamicin. Additional four concentration of 10-fold or ½ log serial dilutions were made to provide a total of five compound concentrations plus control. Aliquots of 100 μl of these different compound dilutions were added to appropriate microtiter wells already containing 100 μl of medium, resulting in the required final compound concentrations.
Following compound addition, the plates were incubated for additional 48 hours at 37° C., 5% CO2, 95% air, and 100% relative humidity. For adherent cells, the assay was terminated by the addition of cold TCA. Cells were fixed in situ by the gentle addition of 50 μl of cold 50% (w/v) TCA (final concentration, 10% TAC) and incubated at 4° C. for 60 minutes. The supernatant was discarded, and the plates were washed five times with tap water and air-dried. A sulforhodamine B (SRB) solution (100 μl) at 0.4% (w/v) in 1% acetic acid was added to each well, and plates were incubated at room temperature for 10 minutes. After staining, unbound dye was removed by washing five times with 1% acetic acid and the plates were air-dried. […] For suspension cells, the methodology was the same except that the assay was terminated by fixing settled cells at the bottom of the wells by gently adding 50 μl of 80% TCA (final concentration, 16% TCA). Using the seven absorbance measurements [time zero (Tz), control growth (C), and test growth rate in the presence of compound at the five concentration levels (Ti)], the growth percentage was calculated at each of the compound concentration levels. Growth inhibition percentage was calculated as follows: [(Ti−Tz)/(C−Tz)]×100 for concentrations for which Ti>/=Tz [(Ti−Tz)/Tz]×100 for concentrations for which Ti<Tz.

For another assay, the system named is A375. Put plainly: NCI cancer cell line panel screening (SRB), melanoma cell line A375. The assay is classed as cell-based. Conditions: Homo sapiens, A-375, read-out: IC50 against melanoma cell line in vitro. The protocol:
(§2) According to the standard protocol (http://dtp.nci.nih.gov/dtpstandard/dwindex/index.isp) of the US National Cancer Institute (NCI) (www.dtp.nci.nih.gov), screening of a cancer cell line panel was performed. Briefly, human cell lines were allowed to grow in an RPMI 1640 medium containing 5% FBS and 2 mM L-glutamine. For a general screening experiment, cells were inoculated in 96-well microtiter plates in 100 μl at a plating density ranging from 5000 cells/well to 40,000 cells/well depending on the doubling time of individual cell lines. After cell inoculation, the microtiter plates were incubated at 37° C., 5% CO2, 95% air, and 100% relative humidity for 24 hours prior to addition of test compounds. 24 hours later, two plates of each cell line were fixed in situ with trichloroacetic acid (TCA) to measure the cell population for each cell line at the time of test compound addition (Tz). Test compounds were solubilized in dimethyl sulfoxide at 400-fold the intended final maximum test concentration, and stored frozen prior to use. At the time of compound addition, an aliquot of frozen concentrate was thawed and diluted to twice the intended final maximum test concentration with a complete medium containing 50 μg/ml of gentamicin. Additional four concentration of 10-fold or ½ log serial dilutions were made to provide a total of five compound concentrations plus control. Aliquots of 100 μl of these different compound dilutions were added to appropriate microtiter wells already containing 100 μl of medium, resulting in the required final compound concentrations.
(§3) Following compound addition, the plates were incubated for additional 48 hours at 37° C., 5% CO2, 95% air, and 100% relative humidity. For adherent cells, the assay was terminated by the addition of cold TCA. Cells were fixed in situ by the gentle addition of 50 μl of cold 50% (w/v) TCA (final concentration, 10% TAC) and incubated at 4° C. for 60 minutes. The supernatant was discarded, and the plates were washed five times with tap water and air-dried. A sulforhodamine B (SRB) solution (100 μl) at 0.4% (w/v) in 1% acetic acid was added to each well, and plates were incubated at room temperature for 10 minutes. After staining, unbound dye was removed by washing five times with 1% acetic acid and the plates were air-dried. Bound stain was subsequently solubilized with 10 mM Trizma base, and the absorbance was read on an automated plate reader at a wavelength of 515 nm. For suspension cells, the methodology was the same except that the assay was terminated by fixing settled cells at the bottom of the wells by gently adding 50 μl of 80% TCA (final concentration, 16% TCA). Using the seven absorbance measurements [time zero (Tz), control growth (C), and test growth rate in the presence of compound at the five concentration levels (Ti)], the growth percentage was calculated at each of the compound concentration levels. Growth inhibition percentage was calculated as follows: [(Ti−Tz)/(C−Tz)]×100 for concentrations for which Ti>/=Tz [(Ti−Tz)/Tz]×100 for concentrations for which Ti<Tz.

A further assay relates to UACC-62. The assay can be described thus: NCI cancer cell line panel screening (SRB), melanoma cell line UACC-62. Format: cell-based. Conditions: Homo sapiens, read-out: IC50 against melanoma cell line in vitro. The protocol: as §2, §3

What is called pIC50 is the negative decadic logarithm of the IC50, by convention in mol/L. In the case of `CCN1CCN(CCNc2nccc(-c3c(-c4cccc(O)c4)nc4occn34)n2)S1(=O)=O` [2II, 2-Ethyl-5-(2-((4-(6-(3-hydroxylphenyl)imidazo[2,1-b]oxazol-5-yl)pyrimidin-2-yl)amino)ethyl)-1,2,5-thiadiazolidine 1,1-dioxide], the pIC50 on V600E-B-RAF was 9.17; at C-RAF, 9.12; at B-RAF, more than 10.40; in the assay with SK-MEL-2, 5.59; in the assay on A375, 6.72; in the assay with UACC-62, 7.15.
